The source of these data is patent US11639350B2, “Heteroaryldihydropyrimidine derivatives and methods of treating hepatitis B infections” (Janssen Pharmaceutica NV, priority 2018, dated 2023).

One data set relates to HBV. Nature of the data set: HBV inhibitory activity: HBV DNA in the culture medium of HepG2.2.15 cells by q-PCR. Type of data set: cell-based. Conditions: HepG2.2.15 cells, 6 days of compound treatment, HBV DNA in culture medium by q-PCR, highest concentration 10 μM; read-out: EC50. The method in brief: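 HepG2.2.15 cells in 2% FBS medium, 40,000 per well, treated 6 days with compound (medium refreshed once), eight 3-fold dilutions from 10 μM top. HBV DNA extracted from culture medium and quantified by q-PCR; EC50 averaged over repeats. Cytotoxicity run in parallel at 5,000 cells per well, top 100 μM, giving CC50.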

Another data set concerns HepG2.2.15 cells. In words: Cytotoxicity determination in HepG2.2.15 cells (CCK-8). Type of data set: cell-based. Conditions: 6 days of compound treatment, CCK-8, highest concentration 100 μM. The method in brief: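 HepG2.2.15 cells seeded at 5,000 cells/well in 2% FBS medium, incubated overnight at 37° C., then treated 6 days with compounds (8 points, 3-fold dilutions, top 100 μM), medium refreshed once midway. CCK-8 added for 2.5 h; A450 read against 630 nm reference; CC50 calculated, averaged over repeats.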

Take `CCOC(=O)C1=C([C@H]2CCC[C@H](C(=O)O)CC2)NC(c2nccs2)=NC1c1ccc(F)c(F)c1Cl` (single isomer, unassigned) [Compound 302F, (trans)-4-(−6-(2-Chloro-3,4-difluorophenyl)-5-(ethoxycarbonyl)-2-(thiazol-2-yl)-3,6-dihydropyrimidin-4-yl)cycloheptanecarboxylic Acid]: the EC50 in the data set on HBV amounted to 37 nM. In the data set with HepG2.2.15 cells, the midpoint of cytotoxicity, the CC50, lay at 10300 nM.
For the compound `COC(=O)C1=C(C2CCN(S(C)(=O)=O)C2)NC(c2nccs2)=NC1c1ccc(F)cc1Cl` (single isomer, unassigned) [Compound 65C, 4-(2-Chloro-4-fluoro-phenyl)-6-(1-methanesulfonyl-pyrrolidin-3-yl)-2-thiazol-2-yl-1,4-dihydro-pyrimidine-5-carboxylic Acid Methyl Ester], the EC50 in the data set with HBV was found to be 378 nM. Moreover, the CC50 in the data set with HepG2.2.15 cells turned out to be 19500 nM.
`COC(=O)C1=C(C2CCN(S(=O)(=O)CC(=O)O)C2)NC(c2nccs2)=NC1c1ccc(F)cc1Cl` (single isomer, unassigned) [Compound 214C, 2-((−3-(−6-(2-Chloro-4-fluorophenyl)-5-(methoxycarbonyl)-2-(thiazol-2-yl)-3,6-dihydropyrimidin-4-yl)pyrrolidin-1-yl)sulfonyl)acetic Acid]: the EC50 with HBV came out at 784 nM. The compound further yielded a CC50 in the data set with HepG2.2.15 cells greater than 100000 nM.
For the compound `COC(=O)C1=C(C2CCC(NC(C)=O)C2)NC(c2nccs2)=NC1c1cccc(F)c1Cl` (single isomer, unassigned) [Compound 62D, Methyl 6-(3-acetamidocyclopentyl)-4-(2-chloro-3-fluorophenyl)-2-(thiazol-2-yl)-1,4-dihydropyrimidine-5-carboxylate], in the data set with HBV, the EC50 stood at 892 nM. The CC50 with HepG2.2.15 cells is 75100 nM.
For `COC(=O)C1=C(C2COC(CO)C2)NC(c2nccs2)=NC1c1cccc(F)c1Cl` (single isomer, unassigned) [Compound 219E, Methyl 4-(2-chloro-3-fluorophenyl)-6-(5-(hydroxymethyl)-tetrahydrofuran-3-yl)-2-(thiazol-2-yl)-1,4-dihydropyrimidine-5-carboxylate], the EC50 in the data set with HBV came to 134 nM. Moreover, half-maximal cytotoxicity in the data set with HepG2.2.15 cells (CC50) was put at 51400 nM.
Turning to `CCOC(=O)C1=C(C2CCN(S(=O)(=O)C3CC(C)(C(=O)O)C3)CC2)NC(c2nccs2)=NC1c1ccc(F)cc1Br` (single isomer, unassigned) [Compound 282C, (trans)-3-((4-(−6-(2-Bromo-4-fluorophenyl)-5-(ethoxycarbonyl)-2-(thiazol-2-yl)-3,6-dihydropyrimidin-4-yl)piperidin-1-yl)sulfonyl)-1-methylcyclobutanecarboxylic Acid], the EC50 in the data set on HBV came to 15 nM. For the same compound, half-maximal cytotoxicity with HepG2.2.15 cells (CC50) was put at 15700 nM.
